Measurements taken from patent US20210379067A1 (iOmx Therapeutics AG, priority 2018, published 2021).
Each block holds one compound with its values, some of them ahead of it.

Columns and labels:
SIK3 = target: T1, SIK3 (Homo sapiens, UniProt Q9Y2K2); test: 33PanQinase radiometric protein kinase assay (IC50); type: biochemical
T1 construct: purchased ProQinase
Description: (§1) Incorporation of 33Pi was determined with a microplate scintillation counter (Microbeta, Wallac).

SIK2 = target: T2, SIK2 (Homo sapiens, UniProt Q9H0K1); test: as above; type: biochemical
T2 construct: purchased ProQinase
Description: as §1

SIK1 = target: T3, SIK1 (Homo sapiens, UniProt P57059); test: as above; type: biochemical
T3 construct: purchased ProQinase
Description: as §1

M579-A2-luc cells = test: Sensitisation of tumour cells to in-vitro TNF attack (luciferase-based viability readout); type: cell-based, human; settings: TNF 10 ng/mL; compound between about 10 and 100 nM; FIG. 7
Description: PANC1-luc is an HLA-A2.1+ luciferase-expressing pancreatic adenocarcinoma (PDAC) tumour cell line, and M579-A2-luc is an HLA-A2.1+ luciferase-expressing melanoma tumour cell line.
After lysis, luciferase assay buffer is added and immediately the luciferase intensity was measured by using the TECAN-Spark microplate reader.

PANC-1-luc cells = test: Sensitisation of tumour cells to in-vitro TNF attack (luciferase-based killing assay); type: cell-based, human; settings: compound plus rHuTNF (10 ng/mL) vs compound alone; FIG. 6
Description: R&D Systems), and also the speed of onset of this effect. PANC1-luc is an HLA-A2.1+ luciferase-expressing pancreatic adenocarcinoma (PDAC) tumour cell line, and […]-A2-luc is an HLA-A2.1+ luciferase-expressing melanoma tumour cell line. […] After lysis, luciferase assay buffer is added and immediately the luciferase intensity was measured by using the TECAN-Spark microplate reader. The PANC1-luc cell line is constructed as follows: PANC-1 cells acquired from the American Type Cell Culture (ATCC). Tumour cells are transfected with a pEGFP-Luc plasmid, using TransIT-LT1 (Mirus) as transfection reagent. Transfected cells are selected with 1 mg/mL of G418/Geneticin, and 14 days after selection EGFP+ cells are sorted using, eg a BD […] II cell sorter.

RAF1 = target: T4, RAF1 (Homo sapiens, UniProt P04049, Y340D/Y341D); test: Kinase Profiler single-point (1 uM) inhibition; type: biochemical; settings: 1 uM compound, read-out: residual activity class (FIG. 3)
T4 construct: purchased ProQinase, Freiburg, Germany (Kinase Profiler service)

JAK1 aa583-1154 wt = target: T5, JAK1 aa583-1154 wt (Homo sapiens, UniProt P23458); test: Kinase Profiler single-point (1 uM) inhibition; type: biochemical
T5 construct: JAK1 aa583-1154 wt; purchased ProQinase

KU812 tumours = settings: large KU812 tumours; 50 mg/kg/day for 5 days; cited from earlier work
K562 CML cells = settings: similar study, cited from earlier work
K562 human CML tumours = settings: high doses; cited from earlier work
[1] = Mouse liver microsomal stability; type: in vitro ADME; settings: liver microsomes, read-out: Intrinsic clearance
[2] = Human liver microsomal stability; type: in vitro ADME
MDR1 = test: in vitro; settings: dog, MDCK-MDR1
in vitro = settings: dog, MDCK
ABL1 wt = target: T6, ABL1 wt (Homo sapiens, UniProt P00519); test: 33PanQinase radiometric protein kinase assay (IC50); type: biochemical
T6 construct: the ABL1 wild-type protein (amino acids P118-S525); purchased ProQinase
T6 sequence (P00519 118-535 limits assumed): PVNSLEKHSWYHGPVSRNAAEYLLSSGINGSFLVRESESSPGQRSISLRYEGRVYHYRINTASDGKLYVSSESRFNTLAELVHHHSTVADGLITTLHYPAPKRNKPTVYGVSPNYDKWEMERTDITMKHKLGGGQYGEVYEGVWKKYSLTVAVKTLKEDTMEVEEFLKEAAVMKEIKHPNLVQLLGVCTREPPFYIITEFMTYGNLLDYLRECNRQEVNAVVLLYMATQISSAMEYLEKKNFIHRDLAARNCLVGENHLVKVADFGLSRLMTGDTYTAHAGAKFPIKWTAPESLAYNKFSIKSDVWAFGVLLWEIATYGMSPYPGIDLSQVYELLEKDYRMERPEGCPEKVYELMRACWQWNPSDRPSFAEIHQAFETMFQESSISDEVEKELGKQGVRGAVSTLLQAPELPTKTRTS
Description: as §1

SRC = target: T7, SRC (Homo sapiens, UniProt P12931); test: as above; type: biochemical
T7 construct: GST; HIS; purchased ProQinase (inferred from the trademark)
Description: as §1

T2 sequence (Q9H0K1 whole entry): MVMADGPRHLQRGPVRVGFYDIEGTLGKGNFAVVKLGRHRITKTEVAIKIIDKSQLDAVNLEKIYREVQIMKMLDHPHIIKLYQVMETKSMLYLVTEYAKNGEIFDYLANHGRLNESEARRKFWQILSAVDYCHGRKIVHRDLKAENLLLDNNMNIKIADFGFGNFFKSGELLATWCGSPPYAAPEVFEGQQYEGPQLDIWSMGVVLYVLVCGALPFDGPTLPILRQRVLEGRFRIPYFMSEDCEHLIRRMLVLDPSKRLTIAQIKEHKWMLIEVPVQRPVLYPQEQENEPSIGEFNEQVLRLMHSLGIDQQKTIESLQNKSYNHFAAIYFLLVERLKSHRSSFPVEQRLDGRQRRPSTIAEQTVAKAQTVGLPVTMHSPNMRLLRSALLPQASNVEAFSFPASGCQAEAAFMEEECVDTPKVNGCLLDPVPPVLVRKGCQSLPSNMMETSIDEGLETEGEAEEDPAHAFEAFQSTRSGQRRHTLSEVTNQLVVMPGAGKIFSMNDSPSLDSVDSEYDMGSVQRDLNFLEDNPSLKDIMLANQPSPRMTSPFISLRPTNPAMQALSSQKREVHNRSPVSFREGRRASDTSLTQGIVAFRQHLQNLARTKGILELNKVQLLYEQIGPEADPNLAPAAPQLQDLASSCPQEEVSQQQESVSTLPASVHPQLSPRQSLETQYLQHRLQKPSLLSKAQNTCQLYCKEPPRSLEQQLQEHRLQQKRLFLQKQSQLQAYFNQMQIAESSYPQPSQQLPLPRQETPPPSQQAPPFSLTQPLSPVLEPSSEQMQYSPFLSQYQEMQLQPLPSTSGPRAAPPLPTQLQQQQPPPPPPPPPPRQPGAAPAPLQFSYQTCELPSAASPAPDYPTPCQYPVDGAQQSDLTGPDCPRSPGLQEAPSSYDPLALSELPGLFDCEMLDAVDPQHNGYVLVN
T3 sequence (P57059 whole entry): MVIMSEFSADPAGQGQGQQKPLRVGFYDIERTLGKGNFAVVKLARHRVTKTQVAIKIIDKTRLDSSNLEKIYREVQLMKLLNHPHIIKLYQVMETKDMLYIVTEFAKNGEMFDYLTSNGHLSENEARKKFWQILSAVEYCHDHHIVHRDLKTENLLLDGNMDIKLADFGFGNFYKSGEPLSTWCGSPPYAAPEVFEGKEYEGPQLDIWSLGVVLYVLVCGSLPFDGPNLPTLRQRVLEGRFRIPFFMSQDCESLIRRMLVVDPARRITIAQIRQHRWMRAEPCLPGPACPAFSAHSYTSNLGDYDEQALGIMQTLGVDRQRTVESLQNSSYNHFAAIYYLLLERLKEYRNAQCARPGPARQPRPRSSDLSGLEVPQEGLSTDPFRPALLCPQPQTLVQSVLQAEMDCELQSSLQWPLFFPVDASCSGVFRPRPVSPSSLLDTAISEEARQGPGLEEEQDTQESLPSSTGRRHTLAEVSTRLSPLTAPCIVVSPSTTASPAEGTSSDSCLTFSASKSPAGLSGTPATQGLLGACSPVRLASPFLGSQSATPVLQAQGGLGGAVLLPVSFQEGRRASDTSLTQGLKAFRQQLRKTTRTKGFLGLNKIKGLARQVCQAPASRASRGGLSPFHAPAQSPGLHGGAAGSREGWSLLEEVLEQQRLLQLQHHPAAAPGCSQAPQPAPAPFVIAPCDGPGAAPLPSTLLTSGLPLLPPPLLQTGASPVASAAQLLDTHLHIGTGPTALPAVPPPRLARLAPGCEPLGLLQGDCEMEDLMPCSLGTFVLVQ
T1 sequence (Q9Y2K2 whole entry): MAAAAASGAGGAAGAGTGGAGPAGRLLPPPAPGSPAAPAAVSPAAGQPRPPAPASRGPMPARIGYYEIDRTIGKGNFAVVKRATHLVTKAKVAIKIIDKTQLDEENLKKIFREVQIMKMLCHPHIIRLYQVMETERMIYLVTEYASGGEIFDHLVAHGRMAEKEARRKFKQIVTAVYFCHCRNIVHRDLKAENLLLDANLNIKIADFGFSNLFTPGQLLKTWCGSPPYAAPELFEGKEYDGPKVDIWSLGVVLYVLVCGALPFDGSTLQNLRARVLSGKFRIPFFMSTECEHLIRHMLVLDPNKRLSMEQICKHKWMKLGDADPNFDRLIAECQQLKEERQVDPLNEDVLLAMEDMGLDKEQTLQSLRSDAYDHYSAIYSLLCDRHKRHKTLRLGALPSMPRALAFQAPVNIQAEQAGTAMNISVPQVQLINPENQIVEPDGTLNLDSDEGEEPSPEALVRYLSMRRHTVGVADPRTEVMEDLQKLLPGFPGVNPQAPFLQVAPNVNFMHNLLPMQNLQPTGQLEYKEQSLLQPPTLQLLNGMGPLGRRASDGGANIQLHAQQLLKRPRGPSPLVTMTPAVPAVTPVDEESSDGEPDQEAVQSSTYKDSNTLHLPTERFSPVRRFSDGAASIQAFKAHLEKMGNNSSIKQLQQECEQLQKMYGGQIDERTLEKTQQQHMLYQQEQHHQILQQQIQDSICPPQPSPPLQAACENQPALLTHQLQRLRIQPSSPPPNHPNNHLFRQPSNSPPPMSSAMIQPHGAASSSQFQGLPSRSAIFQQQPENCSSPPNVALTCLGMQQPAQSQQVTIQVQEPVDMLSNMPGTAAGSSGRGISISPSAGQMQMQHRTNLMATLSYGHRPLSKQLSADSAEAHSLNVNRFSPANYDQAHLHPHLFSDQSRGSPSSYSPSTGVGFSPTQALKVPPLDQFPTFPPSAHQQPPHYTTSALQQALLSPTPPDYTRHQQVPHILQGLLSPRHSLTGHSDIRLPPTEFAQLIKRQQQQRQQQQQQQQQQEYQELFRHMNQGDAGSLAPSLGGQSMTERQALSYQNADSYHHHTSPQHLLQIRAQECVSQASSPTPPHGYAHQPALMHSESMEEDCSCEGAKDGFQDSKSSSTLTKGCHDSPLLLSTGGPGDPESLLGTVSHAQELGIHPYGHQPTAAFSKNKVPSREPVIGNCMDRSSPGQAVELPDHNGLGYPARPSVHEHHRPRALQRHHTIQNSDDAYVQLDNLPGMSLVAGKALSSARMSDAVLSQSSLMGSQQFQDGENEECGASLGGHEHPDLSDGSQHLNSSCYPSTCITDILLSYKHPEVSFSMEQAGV
T5 sequence (P23458 583-1154): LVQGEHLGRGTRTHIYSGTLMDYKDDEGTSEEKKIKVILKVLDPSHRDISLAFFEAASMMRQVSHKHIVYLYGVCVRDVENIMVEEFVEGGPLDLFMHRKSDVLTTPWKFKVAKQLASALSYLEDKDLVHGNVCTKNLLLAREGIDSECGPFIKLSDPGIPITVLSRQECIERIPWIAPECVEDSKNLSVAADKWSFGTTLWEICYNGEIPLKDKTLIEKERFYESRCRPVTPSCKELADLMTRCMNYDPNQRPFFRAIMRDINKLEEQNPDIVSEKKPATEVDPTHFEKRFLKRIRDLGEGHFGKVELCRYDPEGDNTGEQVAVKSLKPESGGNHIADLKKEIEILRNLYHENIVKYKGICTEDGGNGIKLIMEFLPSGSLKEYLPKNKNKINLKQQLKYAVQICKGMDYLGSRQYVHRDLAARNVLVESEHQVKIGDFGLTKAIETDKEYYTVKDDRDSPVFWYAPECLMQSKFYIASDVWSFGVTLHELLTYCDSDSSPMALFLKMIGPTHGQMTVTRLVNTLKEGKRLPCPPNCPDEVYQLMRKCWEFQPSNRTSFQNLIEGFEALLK
T4 sequence (P04049 307-648 Y340D/Y341D limits assumed): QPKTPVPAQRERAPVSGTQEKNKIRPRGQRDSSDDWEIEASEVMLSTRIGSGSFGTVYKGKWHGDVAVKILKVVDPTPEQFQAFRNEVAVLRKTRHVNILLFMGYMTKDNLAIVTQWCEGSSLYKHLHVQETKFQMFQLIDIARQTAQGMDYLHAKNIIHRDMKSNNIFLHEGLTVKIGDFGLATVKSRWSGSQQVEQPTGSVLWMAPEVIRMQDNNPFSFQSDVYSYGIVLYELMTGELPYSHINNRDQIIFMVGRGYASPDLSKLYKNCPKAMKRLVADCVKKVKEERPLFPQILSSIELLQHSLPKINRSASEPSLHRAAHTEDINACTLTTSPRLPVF
T7 sequence (P12931 whole entry): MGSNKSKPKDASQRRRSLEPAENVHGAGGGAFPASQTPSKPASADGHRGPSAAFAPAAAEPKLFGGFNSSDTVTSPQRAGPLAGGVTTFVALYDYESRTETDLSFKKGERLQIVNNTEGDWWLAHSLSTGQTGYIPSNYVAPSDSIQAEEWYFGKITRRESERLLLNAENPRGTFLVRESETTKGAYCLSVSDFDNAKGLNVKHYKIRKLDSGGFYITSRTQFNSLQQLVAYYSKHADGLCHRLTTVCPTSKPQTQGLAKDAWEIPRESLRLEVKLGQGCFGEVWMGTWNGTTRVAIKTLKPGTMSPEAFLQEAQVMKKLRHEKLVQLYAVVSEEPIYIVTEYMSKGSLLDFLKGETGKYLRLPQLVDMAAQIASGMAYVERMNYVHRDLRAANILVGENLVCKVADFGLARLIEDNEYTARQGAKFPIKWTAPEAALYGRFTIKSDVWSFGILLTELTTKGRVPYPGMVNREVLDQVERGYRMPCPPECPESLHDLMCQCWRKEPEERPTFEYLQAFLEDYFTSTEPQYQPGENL

Compound: CCOc1cccc(Cl)c1NC(=O)c1cnc(Nc2cc(N3CCN(CCO)CC3)nc(C)n2)s1 [Compound B8, N-(2-Chloro-6-ethoxyphenyl)-2-((6-(4-(2-hydroxyethyl)piperazin-1-yl)-2-methylpyrimidin-4-yl)amino)thiazole-5-carboxamide]
inhibitory activity (SIK3): low inhibitory activity against SIK family members
inhibitory activity (SIK2): low inhibitory activity against SIK family members
inhibitory activity (SIK1): low inhibitory activity against SIK family members
tumour cell cytotoxicity with TNF compared to inhibitor alone (M579-A2-luc cells): fails to exhibit cytotoxicity

Compound: Cc1nc(Nc2ncc(C(=O)Nc3c(C)cccc3Cl)s2)cc(N2CCN(CCO)CC2)n1 [Compound A8, N-(2-chloro-6-methylphenyl)-2-((6-(4-(2-hydroxyethyl)piperazin-1-yl)-2-methylpyrimidin-4-yl)amino)thiazole-5-carboxamide]
sensitisation of tumour cells to TNF attack (PANC-1-luc cells): sensitisation of tumour-cells to in-vitro TNF-attack
remaining activity at 1 µM (RAF1): < 25%
Residual activity (%) at 1 uM (JAK1 aa583-1154 wt): 41%
tumour response (KU812 tumours): curative
survival (K562 CML cells; 10 and 30 mg/kg/day): increased survival

Compound: Cc1nc(Nc2ncc(C(=O)Nc3c(Cl)cccc3Br)s2)cc(N2CCN(CCO)CC2)n1 [Compound B1, N-(2-bromo-6-chlorophenyl)-2-((6-(4-(2-hydroxyethyl)piperazin-1-yl)-2-methylpyrimidin-4-yl)amino)thiazole-5-carboxamide]
inhibitory activity (SIK3): pan-SIK and ABL1 & SRC inhibitor
inhibitory activity (SIK2): pan-SIK and ABL1 & SRC inhibitor
inhibitory activity (SIK1): pan-SIK and ABL1 & SRC inhibitor
tumour cell cytotoxicity with TNF compared to inhibitor alone (M579-A2-luc cells): increased cytotoxicity

Compound: Cc1ccc(NC(=O)c2ccc(CN3CCN(C)CC3)cc2)cc1Nc1nccc(-c2cccnc2)n1 [imatinib]
tumour response (K562 human CML tumours): failed to produce a comparative response
intracranial tumour growth (K562 CML cells; 200 mg/kg/day): failed to inhibit intracranial tumour growth

Compound: Cc1nc(Nc2ncc(C(=O)Nc3c(Cl)ccnc3C)s2)cc(N2CCN(CCO)CC2)n1 [Compound B3, N-(4-chloro-2-methylpyridin-3-yl)-2-((6-(4-(2-hydroxyethyl)piperazin-1-yl)-2-methylpyrimidin-4-yl)amino)thiazole-5-carboxamide]
microsomal CLint [1]: 22 µL/min/mg
sensitisation of tumour cells to TNF attack (PANC-1-luc cells): sensitisation of tumour-cells to in-vitro TNF-attack
drug remaining at 40 min, times more than dasatinib ([2]; hLM assay): 10 times
half-life, times longer than dasatinib ([2]; hLM assay): ~6 times
microsomal CLint ([2]; liver microsomes, human liver microsomal stability, read-out: Intrinsic clearance): 24 µL/min/mg
Papp A→B (MDR1): < 0.8 ×10⁻⁶ cm/s
Papp B→A (MDR1): 20 ×10⁻⁶ cm/s
Papp A→B (in vitro): 6.8 ×10⁻⁶ cm/s
Papp B→A (in vitro): 20 ×10⁻⁶ cm/s

inhibitory activity (SIK3): weak inhibitor of SIK3
inhibitory activity (ABL1 wt): potent inhibitor of ABL1 & SRC
inhibitory activity (SIK2): strong inhibitor or SIK1 and SIK2
inhibitory activity (SIK1): strong inhibitor or SIK1 and SIK2
inhibitory activity (SRC): potent inhibitor of ABL1 & SRC
Compound: COc1c(F)cccc1NC(=O)c1cnc(Nc2cc(N3CCN(CCO)CC3)nc(C)n2)s1 [Compound B4, N-(3-fluoro-2-methoxyphenyl)-2-((6-(4-(2-hydroxyethyl)piperazin-1-yl)-2-methylpyrimidin-4-yl)amino)thiazole-5-carboxamide]
tumour cell cytotoxicity with TNF compared to inhibitor alone (M579-A2-luc cells): fails to exhibit cytotoxicity
